Laboratory results reported in article PMC5423775, “Structure of a AAA+ unfoldase in the process of unfolding substrate” (eLife, 2017).

Assays:
ΔN-VAT = target: T1, ΔN-VAT (Thermoplasma acidophilum, UniProt O05209); assay: cryo-EM structure, […] Å; type: binding; conditions: 5 mM ATPγS, 50 mM HEPES pH 7.5, 100 mM NaCl; all twelve NBD1 and NBD2 nucleotide sites; six-fold symmetric stacked-ring state
T1 construct: N-terminal regulatory domain removed (Methods: 181 residues deleted; b5 says first 182), NBD1 + NBD2; N-terminal His6 tag with TEV site, pProEx vector; homohexamer
T1 sequence (O05209 182-745, stated change not applied): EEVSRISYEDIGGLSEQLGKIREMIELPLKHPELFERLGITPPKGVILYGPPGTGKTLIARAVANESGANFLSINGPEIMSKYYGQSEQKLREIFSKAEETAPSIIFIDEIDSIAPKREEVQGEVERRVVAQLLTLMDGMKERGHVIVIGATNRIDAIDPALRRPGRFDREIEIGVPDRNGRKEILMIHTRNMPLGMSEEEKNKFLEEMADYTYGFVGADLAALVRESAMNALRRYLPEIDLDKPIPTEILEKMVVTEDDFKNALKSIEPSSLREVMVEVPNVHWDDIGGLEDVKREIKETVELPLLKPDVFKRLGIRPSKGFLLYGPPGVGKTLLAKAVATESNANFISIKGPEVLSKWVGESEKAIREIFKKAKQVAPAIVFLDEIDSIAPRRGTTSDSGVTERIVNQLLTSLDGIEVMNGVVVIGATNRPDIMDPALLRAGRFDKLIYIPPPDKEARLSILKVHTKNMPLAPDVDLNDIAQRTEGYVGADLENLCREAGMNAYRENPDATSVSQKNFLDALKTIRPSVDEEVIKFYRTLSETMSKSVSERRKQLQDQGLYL

[1] = target: ΔN-VAT (Thermoplasma acidophilum VAT with the regulatory N-terminal domain removed) (Thermoplasma acidophilum) (UniProt O05209); assay: cryo-EM structure; purified ΔN-VAT at ~20 mg/mL, 50 mM HEPES pH 7.5, 100 mM NaCl, 5 mM ATPγS, 0.05% IGEPAL CA-630; six-fold symmetric stacked-ring class (~85% of particle images), C6 symmetry applied, 3.9 Å

Compound	cryo-EM structure, 3.9 Å (ΔN-VAT)	stoichiometry N [1]
Nc1ncnc2c1ncn2[C@@H]1O[C@H](COP(=O)(O)OP(=O)(O)OP(O)(O)=S)[C@@H](O)[C@H]1O [ATPγS]	Density corresponding to ATPγS is visible in all twelve catalytic sites.	
ΔN-VAT (Thermoplasma acidophilum VAT with the regulatory N-terminal domain removed) (from UniProt O05209 182-745) (enzyme)		6
